Experiments:
[1] = mn = molality of the nth substance listed, in mol/kg; settings: 87 kPa, Liquid, Vibrating tube method
[2] = osmotic coefficient (dimensionless); mn = molality of the nth substance listed, in mol/kg; settings: 298.15 K, 87 kPa, Liquid, isopiestic method
[3] = wn = mass fraction of the nth substance listed; settings: 87 kPa, Liquid, Vibrating tube method

CCn1cc[n+](C)c1.O=S(=O)([O-])O [1-ethyl-3-methylimidazolium hydrogen sulfate] + O
mass density [kg/m3], [1]
Settings	m1 = 0.0363	m1 = 0.0687	m1 = 0.1026	m1 = 0.1384	m1 = 0.1716	m1 = 0.2049	m1 = 0.2391	m1 = 0.2718	m1 = 0.3034	m1 = 0.3375
293.15 K	1000.86	1003.08	1005.3	1007.57	1009.63	1011.67	1013.72	1015.68	1017.53	1019.54
298.15 K	999.65	1001.82	1003.99	1006.22	1008.23	1010.23	1012.24	1014.17	1016	1017.98
303.15 K	998.2	1000.33	1002.46	1004.64	1006.63	1008.6	1010.58	1012.47	1014.26	1016.21
308.15 K	996.54	998.63	1000.73	1002.87	1004.82	1006.76	1008.7	1010.58	1012.34	1014.25
313.15 K	994.68	996.73	998.8	1000.91	1002.83	1004.74	1006.66	1008.5	1010.24	1012.13

[2]
Settings	osmotic coefficient
m1 = 1.038	0.895
m1 = 1.543	0.897
m1 = 1.745	0.898
m1 = 1.961	0.9
m1 = 2.045	0.904
m1 = 2.251	0.909
m1 = 2.534	0.915
m1 = 2.814	0.919
m1 = 3.343	0.93
m1 = 4.042	0.948
m1 = 4.513	0.96
m1 = 5.04	0.974
m1 = 5.663	0.993
m1 = 6.555	1.03
m1 = 6.91	1.05

[Cl-].[Li+] [lithium chloride] + O
mass density [kg/m3], [3]
Settings	293.15 K	298.15 K	303.15 K	308.15 K	313.15 K
w1 = 0.0346	–	1016.17	1014.72	1013.08	1011.25
w1 = 0.0691	1036.35	1035.04	1033.55	1031.8	1030.06
w1 = 0.1035	1055.18	1053.81	1052.33	1050.73	1049.03
w1 = 0.1379	1074.05	1072.65	1071.16	1069.55	1067.85

[2]
Settings	osmotic coefficient
m1 = 0.9064	1.02
m1 = 1.278	1.08
m1 = 1.439	1.09
m1 = 1.616	1.09
m1 = 1.667	1.11
m1 = 1.83	1.12
m1 = 1.99	1.16
m1 = 2.183	1.18
m1 = 2.563	1.21
m1 = 3.014	1.27
m1 = 3.293	1.32
m1 = 3.572	1.37
m1 = 3.952	1.42
m1 = 4.457	1.51
m1 = 4.668	1.55

From the NIST ThermoML archive (doi:10.1016/j.jct.2016.07.003)
